# Experimental data: patent US6410792B1, “Amide derivatives and methods for using the same as selective neuropeptide Y receptor antagonists” (Bayer Corporation, priority 1997, dated 2002)
# Where two headings read alike, the source gives them in different places.
# Columns and labels:
# Human NPY1 receptor = target: T1, Human NPY1 receptor (Homo sapiens, UniProt P25929); assay: Human NPY1 receptor binding assay ([125I]PYY, SK-N-MC cells); conditions: [125I]PYY, SK-N-MC cells; read-out: hNPYI IC50
# T1 construct: host or cells: SK-N-MC cells
# T1 sequence (P25929 1-384): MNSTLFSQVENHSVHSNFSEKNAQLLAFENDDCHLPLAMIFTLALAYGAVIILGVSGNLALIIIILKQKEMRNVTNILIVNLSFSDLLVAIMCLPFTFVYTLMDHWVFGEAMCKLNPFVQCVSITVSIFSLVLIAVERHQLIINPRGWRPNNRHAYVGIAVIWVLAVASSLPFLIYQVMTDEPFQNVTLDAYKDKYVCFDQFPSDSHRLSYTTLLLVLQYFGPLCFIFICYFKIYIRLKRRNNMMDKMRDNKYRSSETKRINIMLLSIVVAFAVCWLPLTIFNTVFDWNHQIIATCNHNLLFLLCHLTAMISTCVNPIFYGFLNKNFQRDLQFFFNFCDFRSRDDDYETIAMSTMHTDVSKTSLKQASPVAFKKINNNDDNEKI
# Procedure, shortened: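 Confluent SK-N-MC cells preincubated 30 min at room temperature in serum-free DMEM/25 mM HEPES pH 7.3 with BSA, bacitracin and PMSF, then incubated 3 h at room temperature with compound and ~50 pM [125I]PYY. Nonspecific binding defined with 1 μM NPY; bound radioactivity counted after Triton X-100 lysis.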
# Human NPY5 receptor = target: T2, Human NPY5 receptor (Homo sapiens, UniProt Q15761); assay: Human NPY5 receptor binding assay ([125I]PYY, membrane protein)
# T2 sequence (Q15761 1-445): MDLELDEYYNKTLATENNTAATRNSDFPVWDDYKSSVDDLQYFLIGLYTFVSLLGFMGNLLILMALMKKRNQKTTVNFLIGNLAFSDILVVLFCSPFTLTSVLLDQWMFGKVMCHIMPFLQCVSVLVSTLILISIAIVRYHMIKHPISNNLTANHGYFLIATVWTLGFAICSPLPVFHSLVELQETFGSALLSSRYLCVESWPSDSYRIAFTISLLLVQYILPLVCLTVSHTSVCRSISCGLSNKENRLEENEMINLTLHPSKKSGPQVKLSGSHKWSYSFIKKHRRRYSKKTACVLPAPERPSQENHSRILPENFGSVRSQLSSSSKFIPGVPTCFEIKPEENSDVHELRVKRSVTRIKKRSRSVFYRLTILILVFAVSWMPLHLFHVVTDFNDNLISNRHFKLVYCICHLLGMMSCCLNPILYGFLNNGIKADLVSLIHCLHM
# Procedure, shortened: (§1)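 Membrane protein incubated 2 h at room temperature with 75-100 pM porcine [125I]PYY and compound in pH 7.4 Tris buffer with salts, 0.1% BSA and bacitracin. Nonspecific binding with 1 μM PYY. Filtration, then gamma or scintillation counting.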
# Y2 receptor = target: T3, Y2 receptor (Homo sapiens, UniProt P49146); assay: Y2 receptor binding assay ([125I]PYY, membrane protein); conditions: [125I]PYY, membrane protein; read-out: hNPY2 IC50
# T3 sequence (P49146 1-381): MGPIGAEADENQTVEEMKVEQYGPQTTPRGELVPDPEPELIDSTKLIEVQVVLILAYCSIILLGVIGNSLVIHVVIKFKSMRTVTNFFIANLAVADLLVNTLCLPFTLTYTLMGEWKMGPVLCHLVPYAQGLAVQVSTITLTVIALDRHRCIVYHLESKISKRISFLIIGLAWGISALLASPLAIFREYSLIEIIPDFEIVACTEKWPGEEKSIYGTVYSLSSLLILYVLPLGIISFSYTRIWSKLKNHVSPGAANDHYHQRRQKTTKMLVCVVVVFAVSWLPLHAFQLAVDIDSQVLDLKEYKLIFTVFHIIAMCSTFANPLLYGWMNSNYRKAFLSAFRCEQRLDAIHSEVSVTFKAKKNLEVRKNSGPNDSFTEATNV
# Procedure, shortened: (§2)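 Filtration binding with membrane protein and drug dilution, 2 h at room temperature with mixing, radioactivity counted by gamma or scintillation. Y2: 25 pM [125I]PYY in Krebs-Ringer bicarbonate pH 7.4 with 0.01% BSA, nonspecific by 1 μM NPY. Y4/PP1: 50 pM [125I]hPP in HEPES-buffered saline pH 7.4 with protease inhibitors and 0.3% BSA, nonspecific by 1 μM hPP.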
# human Y4/PP1 receptor = human Y4/PP1 receptor (Homo sapiens, UniProt P50391); assay: Human Y4/PP1 receptor binding assay ([125I]human PP, membrane protein); conditions: [125I]human PP, membrane protein; read-out: hNPY4 IC50
# human Y4/PP1 receptor, sequence (P50391 whole entry): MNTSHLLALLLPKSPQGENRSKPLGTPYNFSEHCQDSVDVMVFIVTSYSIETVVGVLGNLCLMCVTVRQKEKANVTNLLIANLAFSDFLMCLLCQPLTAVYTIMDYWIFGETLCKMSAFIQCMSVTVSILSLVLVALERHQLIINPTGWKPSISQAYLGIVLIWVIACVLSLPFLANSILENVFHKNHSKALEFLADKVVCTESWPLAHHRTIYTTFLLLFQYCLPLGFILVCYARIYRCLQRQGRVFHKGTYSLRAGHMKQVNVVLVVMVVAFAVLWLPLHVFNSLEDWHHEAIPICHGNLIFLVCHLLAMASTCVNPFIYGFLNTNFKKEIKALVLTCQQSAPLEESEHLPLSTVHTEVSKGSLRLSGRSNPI
# Procedure, shortened: as §2
# Rat NPY5 receptor = target: T4, Rat NPY5 receptor (Rattus norvegicus, UniProt Q63634); assay: Rat NPY5 receptor binding assay ([125I]PYY, membrane protein)
# T4 sequence (Q63634 1-445): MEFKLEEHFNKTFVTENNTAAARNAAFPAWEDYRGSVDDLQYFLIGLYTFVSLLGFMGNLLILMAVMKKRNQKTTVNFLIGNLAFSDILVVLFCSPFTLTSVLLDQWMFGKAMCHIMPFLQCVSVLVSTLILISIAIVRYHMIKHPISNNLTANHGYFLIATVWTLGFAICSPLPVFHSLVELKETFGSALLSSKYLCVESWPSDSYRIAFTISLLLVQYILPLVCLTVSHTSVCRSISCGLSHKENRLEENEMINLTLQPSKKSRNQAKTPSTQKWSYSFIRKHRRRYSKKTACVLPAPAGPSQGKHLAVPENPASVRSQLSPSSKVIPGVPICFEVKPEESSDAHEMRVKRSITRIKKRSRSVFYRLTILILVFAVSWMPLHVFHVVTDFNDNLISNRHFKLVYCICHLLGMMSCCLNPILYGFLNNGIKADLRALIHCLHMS
# Procedure, shortened: as §1
# [1] = [125I]PYY, read-out: hNPY5 IC50
# [2] = [125I]PYY, read-out: rNPY5 IC50
SMILES,IC50 (Human NPY1 receptor),melting point,IC50 (Human NPY5 receptor; [1]),IC50 (Y2 receptor),IC50 (human Y4/PP1 receptor),IC50 (Rat NPY5 receptor; [2]),"IC50 (Rat NPY5 receptor; rNPY5 IC50, [125I]PYY)","IC50 (Human NPY5 receptor; hNPY5 IC50, [125I]PYY)"
"O=C(CN1CCC2(CC1)C(=O)NCN2c1ccccc1)Nc1ccc(C2CCCCC2)cc1 [Compound 269, N-(4-Cyclohexyl-phenyl)-2-(4-oxo-1-phenyl-1,3,8-triaza-spiro[4.5]dec-8-yl)-acetamide]",> 5 µM,117 to 118 °C,0.79 µM,> 5 µM,> 5 µM,,,
"CC(C)OCCCNC(=O)CN1CCC(n2c(=O)[nH]c3ccccc32)CC1.Cl [Compound 283, N-(3-Isopropoxy-propyl)-2-[4-(2-oxo-2,3-dihydro-benzoimidazol-1-yl)-piperidin-1-yl]-acetamide; hydrochloride]",> 5 µM,237 to 238 °C,> 10 µM,> 5 µM,> 5 µM,> 10 µM,,
"O=C(CN1CCC(NC(=O)Nc2ccccc2)CC1)Nc1ccc(C2CCCCC2)cc1 [Compound 274, N-(4-Cyclohexyl-phenyl)-2-[4-(3-phenyl-ureido)-piperidin-1-yl]-acetamide]",> 5 µM,222 to 223 °C,4.8 µM,,> 5 µM,1.5 µM,,
"Cl.O=C(CN1CCC(n2c(=O)[nH]c3ccccc32)CC1)NCC1CCCCC1 [Compound 282, N-Cyclohexylmethyl-2-[4-(2-oxo-2,3-dihydro-benzoimidazol-1-yl)-piperidin-1-yl]-acetamide; hydrochloride]",> 5 µM,196 to 197 °C,0.38 µM,> 5 µM,> 5 µM,0.313 µM,,
"COCCNC(=O)CN1CCC(n2c(=O)[nH]c3ccccc32)CC1 [Compound 284, N-(2-Methoxy-ethyl)-2-[4-(2-oxo-2,3-dihydro-benzoimidazol-1-yl)-piperidin-1-yl]-acetamide]",> 5 µM,77 to 78 °C,> 10 µM,> 5 µM,> 5 µM,> 10 µM,,
"O=C(Nc1ccc(-c2ccccc2)cc1)C(c1ccccc1)N1CCC(n2c(=O)[nH]c3ccccc32)CC1 (centres unmarked) [Compound 312, N-Biphenyl-4-yl-2-[4-(2-oxo-2,3-dihydro-benzoimidazol-1-yl)-piperidin-1-yl]-2-phenyl-acetamide]",> 5 µM,207 to 210 °C,,> 5 µM,> 5 µM,,0.024 µM,0.032 µM
"O=C(CN1CCCCC1)Nc1ccc(C2CCCCC2)cc1 [Compound 252, N-(4-Cyclohexyl-phenyl)-2-(piperidine)-acetamide]",> 5 µM,118 to 119 °C,0.94 µM,> 5 µM,> 5 µM,0.63 µM,,
"O=C(CN1CCC(n2c(=O)[nH]c3ccccc32)CC1)Nc1cccc2c1-c1ccccc1C2=O [Compound 308, 2-[4-(2-Oxo-2,3-dihydro-benzoimidazol-1-yl)-piperidin-1-yl]-N-(9-oxo-9H-fluoren-4-yl)-acetamide]",> 5 µM,205 °C,0.36 µM,> 5 µM,> 5 µM,0.3 µM,,
"O=C(CN1CCC(n2c(=O)[nH]c3ccccc32)CC1)Nc1ccc(Cc2ccccc2)cc1 [Compound 258, N-(4-Benzyl-phenyl)-2-[4-(2-oxo-2,3-dihydro-benzoimidazol-1-yl)-piperidin-1-yl]-acetamide]",> 5 µM,182 to 183 °C,0.1 µM,> 5 µM,> 5 µM,,,

# More lines, main results first:
IC50 (Human NPY1 receptor),melting point,IC50 (Human NPY5 receptor; [1]),IC50 (Y2 receptor),IC50 (human Y4/PP1 receptor),IC50 (Rat NPY5 receptor; [2]),SMILES,"IC50 (Rat NPY5 receptor; rNPY5 IC50, [125I]PYY)","IC50 (Human NPY5 receptor; hNPY5 IC50, [125I]PYY)"
> 5 µM,102 to 103 °C,5.4 µM,> 5 µM,> 5 µM,2.9 µM,"O=C(CN1CCCCC1)Nc1ccc(-c2ccccc2)cc1 [Compound 271, N-Biphenyl-4-yl-2-piperidin-1-yl-acetamide]",,
> 5 µM,168 to 177 °C,0.014 µM,> 5 µM,> 5 µM,,CC(C)OC(=O)c1ccc(NC(=O)CN2CCC(n3c(=O)[nH]c4ccccc43)CC2)cc1 [Compound 260],,
> 5 µM,132 to 133 °C,7 µM,,> 5 µM,6.5 µM,"O=C(CNC(c1ccccc1)c1ccccc1)Nc1ccc(C2CCCCC2)cc1 [Compound 273, 2-(Benzhydryl-amino)-N-(4-cyclohexyl-phenyl)-acetamide]",,
> 5 µM,234 to 235 °C,0.79 µM,> 5 µM,> 5 µM,,"O=C(CN1CCC(n2c(=O)[nH]c3ccccc32)CC1)Nc1ccc(C=Cc2ccccc2)cc1 [Compound 262, 2-[4-(2-Oxo-2,3-dihydro-benzoimidazol-1-yl)-piperidin-1-yl]-N-(4-styryl-phenyl)-acetamide]",,
> 5 µM,148 to 150 °C,0.028 µM,> 5 µM,> 5 µM,0.012 µM,"CC(C(=O)Nc1ccc(C2CCCCC2)cc1)N1CCC(n2c(=O)[nH]c3ccccc32)CC1 (centres unmarked) [Compound 278, N-(4-Cyclohexyl-phenyl)-2-[4-(2-oxo-2,3-dihydro-benzoimidazol-1-yl)-piperidin-1-yl]-propionamide]",,
> 5 µM,144 to 148 °C,0.13 µM,> 5 µM,> 5 µM,0.068 µM,CC(C(=O)Nc1ccc(C(C)(C)C)cc1)N1CCC(n2c(=O)[nH]c3ccccc32)CC1 (centres unmarked) [Compound 279],,
> 5 µM,186 °C,0.034 µM,> 5 µM,> 5 µM,0.034 µM,"Cl.O=C(CN1CCC(n2c(=O)[nH]c3ccccc32)CC1)Nc1ccc2oc3ccccc3c2c1 [Compound 310, N-Dibenzofuran-2-yl-2-[4-(2-oxo-2,3-dihydro-benzoimidazol-1-yl)-piperidin-1-yl]-acetamide; hydrochloride]",,
> 5 µM,164 to 165 °C,0.59 µM,> 5 µM,> 5 µM,,"CCOC(=O)Cc1ccc(NC(=O)CN2CCC(n3c(=O)[nH]c4ccccc43)CC2)cc1 [Compound 261, (4-{2 [4-(2-Oxo-2,3-dihydro-benzoimidazol-1-yl)-piperidin-1-yl]-acetylamino}-phenyl)-acetic acid ethyl ester]",,
